From patent US20260216144A1, “TARGETING MB2 OF THE MYC ONCOGENE AND ITS INTERACTION WITH TRRAP IN CANCER” (priority 2019, published 2026)

Tests used:
MYC:TRRAP complexes = molecular target: T1, MYC:TRRAP complexes (Homo sapiens, UniProt P01106+Q9Y4A5); assay: in vitro co-IP (compounds added directly to the purified MYC:TRRAP complex on pre-washed beads); format: binding; conditions: in vitro by co-IP; normalized to protein levels; FIG. 26B; read-out: IC50 for the inhibition of MYC:TRRAP
T1 construct: immunoprecipitation experiments using endogenous full length MYC and TRRAP
Description: FIGS. 23A-23B show the results of co-IP assay experiments comparing the top 17 hits in immunoprecipitation experiments using endogenous full length MYC and TRRAP. In these experiments immunocomplexes were immunoprecipitated with anti-MYC beads in the presence of 25 μM of each of the 17 top compounds. Experiments were carried out in cells (compounds were added to the media of cells) (FIG. 23B) or in vitro (compounds were added directly to the purified complex on pre-washed beads) (FIG. 23A). Immunoprecipitation of TRRAP was normalized to the immunoprecipitation of MYC.
This represents an ^~10-fold increase in activity from NSC657456.

MYC:TRRAP interaction = MYC:TRRAP interaction (Homo sapiens, UniProt P01106+Q9Y4A5); assay: MYC:TRRAP in-cell luminescence complementation assay (NanoBiT; SmB-MYC 1-190 and TRRAP 2033-2283-LgB in HeLa cells); format: cell-based
How it was run: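 HeLa cells transfected with SmB-MYC 1-190, TRRAP 2033-2283-LgB and EGFP reporter (6.7:60:33.3 ng plasmid per well); two days later treated 2 h with compounds at 25 μM. NanoBiT luminescence normalized to EGFP fluorescence; hits retested at 10 μM and counter-screened on LgB/SmB alone.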

MYC:TRRAP interaction, sequence (P01106 16-205): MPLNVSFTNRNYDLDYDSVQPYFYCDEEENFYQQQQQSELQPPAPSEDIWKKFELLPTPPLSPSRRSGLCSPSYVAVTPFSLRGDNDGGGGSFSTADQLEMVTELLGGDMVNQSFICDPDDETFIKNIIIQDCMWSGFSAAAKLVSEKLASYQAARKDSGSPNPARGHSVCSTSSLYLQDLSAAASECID
MYC:TRRAP interaction, sequence (Q9Y4A5 2051-2301): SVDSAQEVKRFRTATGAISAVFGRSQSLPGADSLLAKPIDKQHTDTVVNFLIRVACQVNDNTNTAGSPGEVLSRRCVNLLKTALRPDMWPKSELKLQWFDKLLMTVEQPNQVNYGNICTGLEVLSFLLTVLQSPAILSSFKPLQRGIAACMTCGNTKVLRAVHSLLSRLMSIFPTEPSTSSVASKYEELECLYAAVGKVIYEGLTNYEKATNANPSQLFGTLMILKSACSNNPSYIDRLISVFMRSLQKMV
T1 sequence (P01106 16-454): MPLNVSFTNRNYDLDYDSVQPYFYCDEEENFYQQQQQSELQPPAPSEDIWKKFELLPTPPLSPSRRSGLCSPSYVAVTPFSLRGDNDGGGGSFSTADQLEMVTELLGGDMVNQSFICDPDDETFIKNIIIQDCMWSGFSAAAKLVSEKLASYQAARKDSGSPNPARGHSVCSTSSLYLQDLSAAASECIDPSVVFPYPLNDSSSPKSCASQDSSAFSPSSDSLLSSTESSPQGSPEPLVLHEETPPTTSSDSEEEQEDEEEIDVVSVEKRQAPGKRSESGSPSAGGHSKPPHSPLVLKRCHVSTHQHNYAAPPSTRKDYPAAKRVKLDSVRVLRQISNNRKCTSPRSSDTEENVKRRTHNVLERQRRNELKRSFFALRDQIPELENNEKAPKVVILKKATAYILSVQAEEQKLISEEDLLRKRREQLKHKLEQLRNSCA
T1 sequence (Q9Y4A5 1-3830 isoform Q9Y4A5-2): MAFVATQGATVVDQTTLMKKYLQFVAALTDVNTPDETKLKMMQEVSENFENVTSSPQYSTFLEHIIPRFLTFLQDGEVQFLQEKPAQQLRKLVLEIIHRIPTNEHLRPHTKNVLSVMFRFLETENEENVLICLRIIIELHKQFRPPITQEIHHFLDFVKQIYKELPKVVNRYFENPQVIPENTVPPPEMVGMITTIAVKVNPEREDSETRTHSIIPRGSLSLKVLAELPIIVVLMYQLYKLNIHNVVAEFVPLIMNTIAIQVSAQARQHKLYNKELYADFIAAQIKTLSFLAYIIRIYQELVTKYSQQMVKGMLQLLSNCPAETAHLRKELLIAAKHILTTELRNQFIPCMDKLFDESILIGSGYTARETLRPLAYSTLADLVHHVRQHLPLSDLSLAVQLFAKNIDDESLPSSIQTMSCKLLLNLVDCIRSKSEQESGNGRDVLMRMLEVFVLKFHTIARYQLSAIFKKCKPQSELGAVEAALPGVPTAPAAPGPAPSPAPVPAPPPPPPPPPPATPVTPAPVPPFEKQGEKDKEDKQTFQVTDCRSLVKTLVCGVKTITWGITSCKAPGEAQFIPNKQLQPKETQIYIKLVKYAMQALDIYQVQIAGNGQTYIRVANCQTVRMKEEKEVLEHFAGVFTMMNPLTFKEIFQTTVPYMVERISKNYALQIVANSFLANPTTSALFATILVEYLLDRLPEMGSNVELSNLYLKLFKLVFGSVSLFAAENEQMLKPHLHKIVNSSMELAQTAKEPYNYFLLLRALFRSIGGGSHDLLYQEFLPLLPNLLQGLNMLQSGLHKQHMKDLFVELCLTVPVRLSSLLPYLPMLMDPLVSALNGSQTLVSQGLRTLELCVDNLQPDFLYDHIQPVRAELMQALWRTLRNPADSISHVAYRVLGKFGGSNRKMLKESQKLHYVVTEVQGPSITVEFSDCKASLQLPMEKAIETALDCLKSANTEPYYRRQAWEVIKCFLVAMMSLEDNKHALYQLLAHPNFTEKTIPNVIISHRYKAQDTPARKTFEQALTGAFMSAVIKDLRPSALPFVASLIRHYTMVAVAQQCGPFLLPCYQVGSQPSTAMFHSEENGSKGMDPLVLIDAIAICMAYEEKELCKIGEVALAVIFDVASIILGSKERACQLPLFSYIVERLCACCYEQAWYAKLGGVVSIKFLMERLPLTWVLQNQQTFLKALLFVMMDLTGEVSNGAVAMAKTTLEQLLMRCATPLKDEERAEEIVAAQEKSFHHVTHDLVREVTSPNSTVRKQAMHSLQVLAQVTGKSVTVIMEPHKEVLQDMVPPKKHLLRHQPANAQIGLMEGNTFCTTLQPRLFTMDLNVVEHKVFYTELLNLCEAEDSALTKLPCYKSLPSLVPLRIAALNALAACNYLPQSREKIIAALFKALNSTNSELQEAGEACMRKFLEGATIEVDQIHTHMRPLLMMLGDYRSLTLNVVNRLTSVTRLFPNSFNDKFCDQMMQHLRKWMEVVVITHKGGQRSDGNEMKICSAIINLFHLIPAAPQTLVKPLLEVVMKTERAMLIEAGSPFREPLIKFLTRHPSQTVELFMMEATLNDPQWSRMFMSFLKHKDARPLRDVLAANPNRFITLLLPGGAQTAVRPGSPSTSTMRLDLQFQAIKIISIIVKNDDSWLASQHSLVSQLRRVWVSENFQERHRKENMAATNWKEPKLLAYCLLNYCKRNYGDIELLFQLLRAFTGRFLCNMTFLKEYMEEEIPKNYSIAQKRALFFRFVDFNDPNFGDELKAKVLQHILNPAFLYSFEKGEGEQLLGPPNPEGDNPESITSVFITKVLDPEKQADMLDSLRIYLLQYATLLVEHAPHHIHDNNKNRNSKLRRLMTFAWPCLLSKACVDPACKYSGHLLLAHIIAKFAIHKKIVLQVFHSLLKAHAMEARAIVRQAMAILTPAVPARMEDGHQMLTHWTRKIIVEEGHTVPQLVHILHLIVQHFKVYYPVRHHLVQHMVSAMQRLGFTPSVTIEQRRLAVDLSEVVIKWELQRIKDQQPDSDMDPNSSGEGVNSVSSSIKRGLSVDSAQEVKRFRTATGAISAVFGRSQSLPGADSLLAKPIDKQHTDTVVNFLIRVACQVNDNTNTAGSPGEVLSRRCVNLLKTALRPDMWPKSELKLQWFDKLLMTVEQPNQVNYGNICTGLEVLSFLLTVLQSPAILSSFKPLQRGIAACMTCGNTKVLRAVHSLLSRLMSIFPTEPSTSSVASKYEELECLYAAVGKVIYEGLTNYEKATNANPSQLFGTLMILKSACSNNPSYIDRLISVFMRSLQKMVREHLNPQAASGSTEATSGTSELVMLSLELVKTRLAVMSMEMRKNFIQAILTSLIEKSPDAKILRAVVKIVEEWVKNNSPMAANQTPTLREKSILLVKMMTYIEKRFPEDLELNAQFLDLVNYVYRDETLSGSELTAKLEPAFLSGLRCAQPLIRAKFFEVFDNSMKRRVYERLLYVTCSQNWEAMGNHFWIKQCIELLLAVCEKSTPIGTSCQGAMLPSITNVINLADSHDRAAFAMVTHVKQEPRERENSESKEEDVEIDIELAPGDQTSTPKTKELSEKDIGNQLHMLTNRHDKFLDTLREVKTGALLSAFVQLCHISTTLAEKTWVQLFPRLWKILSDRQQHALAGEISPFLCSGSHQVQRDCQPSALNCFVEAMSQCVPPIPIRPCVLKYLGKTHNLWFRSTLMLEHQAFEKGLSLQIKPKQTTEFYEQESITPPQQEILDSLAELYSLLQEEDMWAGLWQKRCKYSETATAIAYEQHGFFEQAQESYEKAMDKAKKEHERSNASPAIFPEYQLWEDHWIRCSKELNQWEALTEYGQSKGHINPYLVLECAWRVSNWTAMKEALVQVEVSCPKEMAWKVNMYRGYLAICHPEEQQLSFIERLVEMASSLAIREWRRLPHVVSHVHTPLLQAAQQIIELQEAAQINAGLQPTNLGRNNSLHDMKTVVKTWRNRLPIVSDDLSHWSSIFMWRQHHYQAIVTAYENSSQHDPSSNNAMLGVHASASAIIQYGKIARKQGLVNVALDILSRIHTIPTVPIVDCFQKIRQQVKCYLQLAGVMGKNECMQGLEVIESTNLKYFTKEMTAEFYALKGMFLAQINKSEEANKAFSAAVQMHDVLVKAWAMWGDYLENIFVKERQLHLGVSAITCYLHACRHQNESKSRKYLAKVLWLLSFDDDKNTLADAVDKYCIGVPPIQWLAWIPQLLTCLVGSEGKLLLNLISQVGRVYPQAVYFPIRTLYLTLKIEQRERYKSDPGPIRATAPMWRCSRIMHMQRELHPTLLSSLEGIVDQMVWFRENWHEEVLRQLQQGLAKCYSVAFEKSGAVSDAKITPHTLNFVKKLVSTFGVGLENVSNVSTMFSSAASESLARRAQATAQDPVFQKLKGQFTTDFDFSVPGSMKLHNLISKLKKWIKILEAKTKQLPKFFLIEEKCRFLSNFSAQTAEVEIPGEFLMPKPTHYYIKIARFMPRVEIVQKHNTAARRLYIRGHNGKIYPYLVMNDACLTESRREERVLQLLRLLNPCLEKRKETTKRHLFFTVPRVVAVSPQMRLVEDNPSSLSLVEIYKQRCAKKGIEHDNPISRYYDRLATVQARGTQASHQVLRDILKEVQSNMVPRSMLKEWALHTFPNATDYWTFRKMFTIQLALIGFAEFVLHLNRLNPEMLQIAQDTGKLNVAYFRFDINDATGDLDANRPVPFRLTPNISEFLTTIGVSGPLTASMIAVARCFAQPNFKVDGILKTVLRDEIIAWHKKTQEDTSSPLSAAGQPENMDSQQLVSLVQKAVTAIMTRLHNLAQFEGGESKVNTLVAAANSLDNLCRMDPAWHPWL

**Q.** How did the IC50 (MYC:TRRAP complexes) turn out when Oc1[nH]c2ccccc2c1/N=N/c1nc(-c2ccccc2)cs1 [Compound 1024, 3-[(4-phenyl-1,3-thiazol-2-yl)diazenyl]-1H-indol-2-ol] was run?
**A.** 3.7 µM

**Q.** What about the “concentration that inhibits MYC:TRRAP complex formation” value (MYC:TRRAP interaction; FIG. 25, 26) of the same compound?
**A.** 3 to 5 µM

**Q.** And the “% Inhibition 10 uM” value (MYC:TRRAP interaction; Table 2, compounds with >80% similarity to compound 10 (NSC657456), 10 uM)?
**A.** 39.63%

**Q.** What about the “increase in activity from NSC657456” value (MYC:TRRAP interaction; compared with NSC657456) of the same compound?
**A.** ~ 10 fold

**Q.** What about the IC50 (MYC:TRRAP interaction; in cells, in-cell luminescence complementation assay, normalized to MYC and TRRAP protein levels, FIG. 26A, read-out: IC50 for the inhibition of MYC:TRRAP) of the same compound?
**A.** 4.7 µM
